From ChEMBL document CHEMBL5584304, “Unlocking the Potential of Glutinol: Structural Diversification and Antifungal Activity against Phytopathogenic Fusarium Strains” (2024) come the findings set out here.

A value given as a limit tells only on which side of the number the result lay.

Assay type in all cases: functional
Common to all, as to conditions: time 24-48 hrs

Test [1] concerns Fusarium graminearum. Nature of the test: Antifungal activity against Fusarium graminearum measured after 24 to 48 hrs by turbidimetry.
The subject of test [2] is Fusarium tucumaniae. Nature of the test: Antifungal activity against Fusarium tucumaniae measured after 24 to 48 hrs by turbidimetry.
Test [3] deals with Fusarium solani. Put plainly: Antifungal activity against Fusarium solani measured after 24 to 48 hrs by turbidimetry.

Regarding `CC1(C)CC[C@]2(C)CC[C@]3(C)[C@H]4CC=C5[C@@H](Cc6c([nH]c7ccccc67)C5(C)C)[C@]4(C)CC[C@@]3(C)[C@@H]2C1`, the minimal inhibitory concentration (MIC) in test [1], in test [2] and in test [3] was above 50 µg/mL throughout.

As to `C=C(C)C1=CC[C@H]2[C@@](C)(CC[C@@]3(C)[C@@H]4CC(C)(C)CC[C@]4(C)CC[C@]23C)[C@@H]1CCC#N`, the MIC in test [1] is above 50 µg/mL; in test [2] it was 59.2 µM; in test [3], 59.2 µM.

For `CC1(C)CC[C@]2(C)CC[C@]3(C)[C@H]4CC=C5[C@@H](CC(C=O)=C(O)C5(C)C)[C@]4(C)CC[C@@]3(C)[C@@H]2C1`, the MIC in test [1] turned out to be 110 µM; in test [2], 110 µM; in test [3] it was 55.2 µM.

Regarding `CC1(C)CC[C@]2(C)CC[C@]3(C)c4ccc5c(c4CC[C@@]3(C)[C@@H]2C1)C=CC(=O)C5(C)C`, the MIC in test [1] was 123 µM; in test [2] it was 123 µM; in test [3], above 50 µg/mL.

In the case of `CC1(C)CC[C@]2(C)CC[C@]3(C)[C@H]4CC=C5[C@@H](Cc6cnn(-c7nc8ccccc8s7)c6C5(C)C)[C@]4(C)CC[C@@]3(C)[C@@H]2C1`, the figures for the MIC in test [1], in test [2] and in test [3] were 85.9 µM, 85.9 µM and 43 µM, respectively.

As for `CC1(C)CC[C@]2(C)CC[C@]3(C)[C@@H](CC=O)[C@](C)([C@@H]4CC[C@H](O)C(C)(C)C4=O)CC[C@@]3(C)[C@@H]2C1`, the MIC in test [1] worked out at 54.5 µM; in test [2] it was 109 µM; in test [3] it was 109 µM.

For `CC1(C)CC[C@]2(C)CC[C@]3(C)[C@H]4CC=C5[C@@H](Cc6sc(N)nc6C5(C)C)[C@]4(C)CC[C@@]3(C)[C@@H]2C1`, the MIC in test [1] is above 50 µg/mL; in test [2], 107 µM; in test [3] it was above 50 µg/mL.

Regarding `CC1(C)CC[C@]2(C)CC[C@]3(C)[C@H]4CC=C5C(=CCC(=O)C5(C)C)[C@]4(C)CC[C@@]3(C)[C@@H]2C1`, the MIC in test [1] is 118 µM; in test [2] it was above 50 µg/mL; in test [3], above 50 µg/mL.

For `CC1(C)CC[C@]2(C)CC[C@]3(C)[C@H]4C=CC5=C(C=C(Br)C(=O)C5(C)C)[C@]4(C)CC[C@@]3(C)[C@@H]2C1`, the MIC in test [1] is above 50 µg/mL; in test [2] it was 100 µM; in test [3], above 50 µg/mL.

Regarding `CC1(C)CC[C@]2(C)CC[C@]3(C)[C@H]4CC=C5[C@@H](Cc6cnoc6C5(C)C)[C@]4(C)CC[C@@]3(C)[C@@H]2C1`, the values for the MIC in test [1], in test [2] and in test [3] were above 50 µg/mL, 55.8 µM and 55.8 µM, respectively.

On to `CC1(C)CC[C@]2(C)CC[C@]3(C)[C@H]4CC=C5C(C)(C)C(=O)CC[C@@]5(O)[C@]4(C)CC[C@@]3(C)[C@@H]2C1`, for which the MIC in test [1] was above 50 µg/mL; in test [2], 113 µM; in test [3], 56.7 µM.

On to `CC1(C)CC[C@]2(C)CC[C@]3(C)[C@H]4CC=C5[C@@H](CC(Br)(Br)C(=O)C5(C)C)[C@]4(C)CC[C@@]3(C)[C@@H]2C1`, for which the MIC was above 50 µg/mL in test [1], 85.9 µM in test [2] and above 50 µg/mL in test [3].

Take `CC1(C)CC[C@]2(C)CC[C@]3(C)c4ccc5c(c4CC[C@@]3(C)[C@@H]2C1)C=C(Br)C(=O)C5(C)C`: the MIC was 51.7 µM in test [1], 51.7 µM in test [2] and above 50 µg/mL in test [3].

With `CC1(C)CC[C@]2(C)CC[C@]3(C)[C@H]4CC=C5C(=CC(=O)C(=O)C5(C)C)[C@]4(C)CC[C@@]3(C)[C@@H]2C1`, the MIC is above 50 µg/mL in test [1], above 50 µg/mL in test [2] and 114 µM in test [3].

For the compound `CC1(C)CC[C@]2(C)CC[C@]3(C)[C@H]4C=CC5=C(C=CC(=O)C5(C)C)[C@]4(C)CC[C@@]3(C)[C@@H]2C1`, the MIC in test [1] is above 50 µg/mL; in test [2], 119 µM; in test [3] it was above 50 µg/mL.

As for `CC1(C)CC[C@]2(C)CC[C@]3(C)[C@H]4CC=C5C(=Cc6n[nH]c(=S)nc6C5(C)C)[C@]4(C)CC[C@@]3(C)[C@@H]2C1`, the MIC in test [1] was determined as 50.8 µM; in test [2] it was 102 µM; in test [3], 25.4 µM.

In the case of `CC1(C)CC[C@]2(C)CC[C@]3(C)[C@H]4CC=C5[C@@H](CC(Br)C(=O)C5(C)C)[C@]4(C)CC[C@@]3(C)[C@@H]2C1` (stereo partly drawn), the MIC in test [1], in test [2] and in test [3] was above 50 µg/mL each time.

In the case of `CC(=O)O[C@H]1CC[C@@H]([C@]2(C)CC[C@@]3(C)[C@@H]4CC(C)(C)CC[C@]4(C)CC[C@]3(C)[C@H]2CC=O)C(=O)C1(C)C`, the MIC was 99.8 µM in test [1], 49.9 µM in test [2] and 49.9 µM in test [3].

On to `CC1(C)CC[C@]2(C)CC[C@]3(C)[C@H]4CC=C5C(=CC6=NC(N)=N[C@]6(O)C5(C)C)[C@]4(C)CC[C@@]3(C)[C@@H]2C1`, for which the MIC is above 50 µg/mL in test [1], 108 µM in test [2] and above 50 µg/mL in test [3].

Take `Cc1cc2c(c(C)c1O)CC[C@H]1[C@@]2(C)CC[C@@]2(C)[C@@H]3CC(C)(C)CC[C@]3(C)CC[C@]12C`: the MIC was above 50 µg/mL in test [1], 118 µM in test [2] and above 50 µg/mL in test [3].

For the compound `CC1(C)CC[C@]2(C)CC[C@]3(C)[C@H]4CC=C5C(=Cc6nc7ccccc7nc6C5(C)C)[C@]4(C)CC[C@@]3(C)[C@@H]2C1`, the values for the MIC in test [1], in test [2] and in test [3] were above 50 µg/mL, 98.2 µM and above 50 µg/mL, respectively.

Consider `COC(=O)Nc1nc2ccccc2[nH]1` [CARBENDAZIM], for which the results for the MIC in test [1], in test [2] and in test [3] were 8.18 µM, 4.09 µM and 4.09 µM, respectively.

Turning to `N#Cc1c[nH]cc1-c1cccc2c1OC(F)(F)O2` [FLUDIOXONIL], the values for the MIC in test [1], in test [2] and in test [3] were 17.8 µM, 17.8 µM and 12.6 µM, respectively.

On to `CC1(C)CC[C@]2(C)CC[C@]3(C)[C@H]4CC=C5[C@@H](CC[C@H](O)C5(C)C)[C@]4(C)CC[C@@]3(C)[C@@H]2C1` [GLUTINOL], for which the MIC in test [1] was above 50 µg/mL; in test [2], 117 µM; in test [3] it was above 50 µg/mL.

For `CC1(C)CC[C@]2(C)CC[C@]3(C)[C@H]4CC=C5[C@@H](CCC(=O)C5(C)C)[C@]4(C)CC[C@@]3(C)[C@@H]2C1` [GLUTINONE], the MIC in test [1] was 118 µM; in test [2] it was 118 µM; in test [3] it was above 50 µg/mL.

With `COC(=O)N(OC)c1ccccc1COc1ccn(-c2ccc(Cl)cc2)n1` [PYRACLOSTROBIN], the figures for the MIC in test [1], in test [2] and in test [3] were 1.01 µM, 1.01 µM and 1.42 µM, respectively.
